In ChEMBL document CHEMBL4507256 (2021):

Assays:
[1] = test system: Epidermal growth factor receptor (Homo sapiens), P00533 [UNDEFINED MUTATION]; settings: Compound concentration 1000.0 nM
[2] = test system: Mast/stem cell growth factor receptor Kit (Homo sapiens), P10721 [V559D,V654A]; settings: Compound concentration 1000.0 nM
[3] = biological target: Homeodomain-interacting protein kinase 3 (Homo sapiens) (UniProt Q9H422); settings: Compound concentration 1000.0 nM
[4] = biological target: Bone morphogenetic protein receptor type-2 (Homo sapiens) (UniProt Q13873); settings: Compound concentration 1000.0 nM
[5] = biological target: Mitogen-activated protein kinase 12 (Homo sapiens) (UniProt P53778); settings: Compound concentration 1000.0 nM
Chain of Mitogen-activated protein kinase 12 (Homo sapiens) (P53778 whole entry): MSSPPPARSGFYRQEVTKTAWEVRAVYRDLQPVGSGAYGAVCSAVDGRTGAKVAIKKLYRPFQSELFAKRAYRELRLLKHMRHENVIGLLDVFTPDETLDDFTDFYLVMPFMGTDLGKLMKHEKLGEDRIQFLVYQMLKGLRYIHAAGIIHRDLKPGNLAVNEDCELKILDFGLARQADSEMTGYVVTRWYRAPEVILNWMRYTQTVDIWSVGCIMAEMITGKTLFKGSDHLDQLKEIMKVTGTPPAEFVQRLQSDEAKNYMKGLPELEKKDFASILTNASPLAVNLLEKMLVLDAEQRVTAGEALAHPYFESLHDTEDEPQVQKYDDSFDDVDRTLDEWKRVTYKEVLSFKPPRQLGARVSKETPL

[6] = biological target: Serine/threonine-protein kinase MRCK gamma (Homo sapiens) (UniProt Q6DT37); settings: Compound concentration 1000.0 nM
[7] = test system: Epidermal growth factor receptor (Homo sapiens), P00533 [L861Q]; settings: Compound concentration 1000.0 nM
[8] = biological target: Serine/threonine-protein kinase Nek1 (Homo sapiens) (UniProt Q96PY6); settings: Compound concentration 1000.0 nM
Chain of Serine/threonine-protein kinase Nek1 (Homo sapiens) (Q96PY6 whole entry): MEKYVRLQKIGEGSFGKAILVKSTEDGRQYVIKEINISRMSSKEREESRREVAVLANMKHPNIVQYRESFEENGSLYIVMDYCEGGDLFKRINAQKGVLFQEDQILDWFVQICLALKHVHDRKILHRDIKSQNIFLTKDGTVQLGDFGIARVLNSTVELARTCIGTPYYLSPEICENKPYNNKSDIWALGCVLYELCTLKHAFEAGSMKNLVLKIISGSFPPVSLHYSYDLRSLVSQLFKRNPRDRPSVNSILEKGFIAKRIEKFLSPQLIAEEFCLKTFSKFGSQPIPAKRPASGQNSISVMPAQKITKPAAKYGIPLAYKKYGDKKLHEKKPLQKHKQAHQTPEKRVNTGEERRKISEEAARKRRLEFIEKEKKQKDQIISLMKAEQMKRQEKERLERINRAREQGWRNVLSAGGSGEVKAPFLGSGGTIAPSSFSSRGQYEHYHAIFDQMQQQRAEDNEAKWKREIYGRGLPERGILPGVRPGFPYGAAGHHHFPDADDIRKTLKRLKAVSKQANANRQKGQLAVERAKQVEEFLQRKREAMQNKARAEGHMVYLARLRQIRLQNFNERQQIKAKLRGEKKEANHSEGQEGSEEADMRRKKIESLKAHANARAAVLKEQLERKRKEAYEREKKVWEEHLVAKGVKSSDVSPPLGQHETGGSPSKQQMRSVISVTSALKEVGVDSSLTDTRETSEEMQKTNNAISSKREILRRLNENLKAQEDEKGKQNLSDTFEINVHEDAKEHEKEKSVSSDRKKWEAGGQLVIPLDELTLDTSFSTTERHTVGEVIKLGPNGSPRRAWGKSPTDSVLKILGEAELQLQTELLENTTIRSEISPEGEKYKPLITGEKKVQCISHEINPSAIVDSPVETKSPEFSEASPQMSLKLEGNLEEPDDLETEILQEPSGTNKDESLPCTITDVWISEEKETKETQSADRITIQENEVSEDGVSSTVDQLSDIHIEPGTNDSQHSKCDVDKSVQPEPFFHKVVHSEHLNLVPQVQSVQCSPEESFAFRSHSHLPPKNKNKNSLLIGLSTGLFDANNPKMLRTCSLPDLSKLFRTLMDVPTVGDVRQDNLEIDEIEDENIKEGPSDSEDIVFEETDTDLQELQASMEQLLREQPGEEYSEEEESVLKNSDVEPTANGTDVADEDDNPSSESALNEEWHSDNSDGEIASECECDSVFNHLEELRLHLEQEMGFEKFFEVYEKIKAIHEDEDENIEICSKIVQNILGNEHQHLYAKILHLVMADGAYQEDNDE

[9] = biological target: Serine/threonine-protein kinase OSR1 (Homo sapiens) (UniProt O95747); settings: Compound concentration 1000.0 nM
Chain of Serine/threonine-protein kinase OSR1 (Homo sapiens) (O95747 2-527 limits assumed): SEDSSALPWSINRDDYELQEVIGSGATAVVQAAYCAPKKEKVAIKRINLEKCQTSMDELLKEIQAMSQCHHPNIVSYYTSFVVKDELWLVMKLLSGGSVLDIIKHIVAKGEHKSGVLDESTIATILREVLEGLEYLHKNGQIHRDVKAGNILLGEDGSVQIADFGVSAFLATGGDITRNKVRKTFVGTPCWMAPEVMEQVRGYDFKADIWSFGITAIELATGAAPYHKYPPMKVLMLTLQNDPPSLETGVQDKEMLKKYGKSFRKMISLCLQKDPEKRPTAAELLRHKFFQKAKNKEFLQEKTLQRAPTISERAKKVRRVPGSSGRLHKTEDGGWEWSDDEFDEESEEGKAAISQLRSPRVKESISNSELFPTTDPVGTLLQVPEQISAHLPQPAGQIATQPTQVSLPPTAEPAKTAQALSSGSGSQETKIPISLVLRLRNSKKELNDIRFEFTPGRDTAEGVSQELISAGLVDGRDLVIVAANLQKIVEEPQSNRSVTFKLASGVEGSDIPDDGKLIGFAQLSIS

[10] = biological target: Tyrosine-protein kinase Yes (Homo sapiens) (UniProt P07947); settings: Compound concentration 1000.0 nM
[11] = biological target: Serine/threonine-protein kinase ICK (Homo sapiens) (UniProt Q9UPZ9); settings: Compound concentration 1000.0 nM
[12] = test system: Phosphatidylinositol 4,5-bisphosphate 3-kinase catalytic subunit alpha isoform (Homo sapiens), P42336 [M1043I]; settings: Compound concentration 1000.0 nM
[13] = biological target: Casein kinase I isoform alpha (Homo sapiens) (UniProt P48729); settings: Compound concentration 1000.0 nM
[14] = biological target: Dual specificity mitogen-activated protein kinase kinase 3 (Homo sapiens) (UniProt P46734); settings: Compound concentration 1000.0 nM
Chain of Dual specificity mitogen-activated protein kinase kinase 3 (Homo sapiens) (P46734 whole entry): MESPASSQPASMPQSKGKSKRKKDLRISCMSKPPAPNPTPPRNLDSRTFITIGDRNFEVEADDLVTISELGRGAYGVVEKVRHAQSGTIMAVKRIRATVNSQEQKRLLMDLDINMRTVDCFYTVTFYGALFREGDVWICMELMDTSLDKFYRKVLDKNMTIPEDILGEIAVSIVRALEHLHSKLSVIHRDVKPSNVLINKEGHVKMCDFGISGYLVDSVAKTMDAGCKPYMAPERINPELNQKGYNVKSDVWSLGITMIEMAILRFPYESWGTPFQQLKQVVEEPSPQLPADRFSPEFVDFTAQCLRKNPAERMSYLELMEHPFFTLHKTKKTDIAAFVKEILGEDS

[15] = biological target: Death-associated protein kinase 1 (Homo sapiens) (UniProt P53355); settings: Compound concentration 1000.0 nM
[16] = biological target: Histamine H3 receptor (Homo sapiens) (UniProt Q9Y5N1); settings: Compound concentration 10.0 uM
[17] = biological target: TGF-beta receptor type-1 (Homo sapiens) (UniProt P36897); settings: Compound concentration 1000.0 nM
[18] = test system: Receptor-type tyrosine-protein kinase FLT3 (Homo sapiens), P36888 [UNDEFINED MUTATION]; settings: Compound concentration 1000.0 nM
[19] = biological target: Tyrosine-protein kinase Fyn (Homo sapiens) (UniProt P06241); settings: Compound concentration 1000.0 nM
[20] = biological target: Mast/stem cell growth factor receptor Kit (Homo sapiens) (UniProt P10721); settings: Compound concentration 1000.0 nM
[21] = biological target: Serine/threonine-protein kinase TAO1 (Homo sapiens) (UniProt Q7L7X3); settings: Compound concentration 1000.0 nM
[22] = biological target: Mitogen-activated protein kinase kinase kinase kinase 4 (Homo sapiens) (UniProt O95819); settings: Compound concentration 1000.0 nM
[23] = biological target: Casein kinase I isoform alpha-like (Homo sapiens) (UniProt Q8N752); settings: Compound concentration 1000.0 nM
[24] = biological target: Delta-type opioid receptor (Homo sapiens) (UniProt P41143); settings: Compound concentration 10.0 uM
[25] = biological target: Tyrosine-protein kinase receptor UFO (Homo sapiens) (UniProt P30530); settings: Compound concentration 1000.0 nM
Chain of Tyrosine-protein kinase receptor UFO (Homo sapiens) (P30530 whole entry): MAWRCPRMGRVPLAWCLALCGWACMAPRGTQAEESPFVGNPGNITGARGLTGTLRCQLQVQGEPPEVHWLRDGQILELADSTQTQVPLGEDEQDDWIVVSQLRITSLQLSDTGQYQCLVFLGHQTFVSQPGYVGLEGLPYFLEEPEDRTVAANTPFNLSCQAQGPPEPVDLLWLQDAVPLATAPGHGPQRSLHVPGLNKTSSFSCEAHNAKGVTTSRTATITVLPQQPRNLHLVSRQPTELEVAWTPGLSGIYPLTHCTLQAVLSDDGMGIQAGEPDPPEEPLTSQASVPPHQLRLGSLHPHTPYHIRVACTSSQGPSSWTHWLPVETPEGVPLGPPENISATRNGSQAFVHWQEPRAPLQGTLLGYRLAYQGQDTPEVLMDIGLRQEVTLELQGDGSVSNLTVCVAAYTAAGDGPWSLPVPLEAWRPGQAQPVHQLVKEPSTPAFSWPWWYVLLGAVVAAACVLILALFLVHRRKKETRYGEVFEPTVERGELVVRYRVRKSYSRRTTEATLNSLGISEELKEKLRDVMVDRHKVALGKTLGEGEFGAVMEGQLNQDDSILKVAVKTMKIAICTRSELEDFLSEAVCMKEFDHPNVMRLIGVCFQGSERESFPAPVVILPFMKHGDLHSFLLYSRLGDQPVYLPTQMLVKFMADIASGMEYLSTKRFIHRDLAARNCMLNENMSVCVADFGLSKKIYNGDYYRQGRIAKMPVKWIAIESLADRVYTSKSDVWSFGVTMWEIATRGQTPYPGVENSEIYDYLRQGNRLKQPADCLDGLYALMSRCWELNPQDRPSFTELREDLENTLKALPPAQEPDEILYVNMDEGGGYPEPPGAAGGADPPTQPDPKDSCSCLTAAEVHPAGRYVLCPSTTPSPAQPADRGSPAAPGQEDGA

[26] = biological target: Activin receptor type-1B (Homo sapiens) (UniProt P36896); settings: Compound concentration 1000.0 nM
[27] = biological target: Serine/threonine-protein kinase 3 (Homo sapiens) (UniProt Q13188); settings: Compound concentration 1000.0 nM
[28] = biological target: Vascular endothelial growth factor receptor 2 (Homo sapiens) (UniProt P35968); settings: Compound concentration 1000.0 nM
[29] = biological target: Tyrosine-protein kinase ABL1 (Homo sapiens) (UniProt P00519); settings: Compound concentration 1000.0 nM
[30] = biological target: Tyrosine-protein kinase TXK (Homo sapiens) (UniProt P42681); settings: Compound concentration 1000.0 nM
Chain of Tyrosine-protein kinase TXK (Homo sapiens) (P42681 whole entry): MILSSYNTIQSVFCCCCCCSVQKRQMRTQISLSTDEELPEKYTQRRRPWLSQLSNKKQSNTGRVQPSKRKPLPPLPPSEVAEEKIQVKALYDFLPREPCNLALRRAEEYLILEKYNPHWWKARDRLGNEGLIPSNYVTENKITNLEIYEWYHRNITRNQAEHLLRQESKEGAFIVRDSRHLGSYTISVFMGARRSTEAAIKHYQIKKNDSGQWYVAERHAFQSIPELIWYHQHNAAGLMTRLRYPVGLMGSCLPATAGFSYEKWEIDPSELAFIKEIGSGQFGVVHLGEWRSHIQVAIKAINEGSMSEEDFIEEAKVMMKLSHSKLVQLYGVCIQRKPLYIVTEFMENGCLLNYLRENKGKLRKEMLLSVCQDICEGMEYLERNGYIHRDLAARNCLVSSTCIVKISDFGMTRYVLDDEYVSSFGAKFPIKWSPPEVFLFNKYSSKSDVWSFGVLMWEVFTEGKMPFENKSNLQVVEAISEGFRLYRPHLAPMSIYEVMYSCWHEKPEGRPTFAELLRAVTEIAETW

[31] = biological target: Proto-oncogene tyrosine-protein kinase Src (Homo sapiens) (UniProt P12931); settings: Compound concentration 1000.0 nM
[32] = biological target: Mitogen-activated protein kinase kinase kinase 12 (Homo sapiens) (UniProt Q12852); settings: Compound concentration 1000.0 nM
[33] = test system: Phosphatidylinositol 4,5-bisphosphate 3-kinase catalytic subunit alpha isoform (Homo sapiens), P42336 [E545K]; settings: Compound concentration 1000.0 nM
[34] = biological target: Leukocyte tyrosine kinase receptor (Homo sapiens) (UniProt P29376); settings: Compound concentration 1000.0 nM
[35] = biological target: Serine/threonine-protein kinase 4 (Homo sapiens) (UniProt Q13043); settings: Compound concentration 1000.0 nM
Chain of Serine/threonine-protein kinase 4 (Homo sapiens) (Q13043 whole entry): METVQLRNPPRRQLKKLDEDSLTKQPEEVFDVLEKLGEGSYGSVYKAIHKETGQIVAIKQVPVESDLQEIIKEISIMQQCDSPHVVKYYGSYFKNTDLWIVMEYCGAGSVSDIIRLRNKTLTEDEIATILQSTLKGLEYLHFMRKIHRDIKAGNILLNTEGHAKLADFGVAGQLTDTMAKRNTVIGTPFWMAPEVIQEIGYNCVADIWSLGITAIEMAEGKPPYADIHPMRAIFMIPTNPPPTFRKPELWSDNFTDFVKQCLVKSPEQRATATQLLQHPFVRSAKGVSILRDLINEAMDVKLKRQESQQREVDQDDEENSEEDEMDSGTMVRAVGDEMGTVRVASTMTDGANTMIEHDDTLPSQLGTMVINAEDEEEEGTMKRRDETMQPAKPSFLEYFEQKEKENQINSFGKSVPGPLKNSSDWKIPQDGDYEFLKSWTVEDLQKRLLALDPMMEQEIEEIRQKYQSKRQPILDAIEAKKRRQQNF

[36] = biological target: Serine/threonine-protein kinase D2 (Homo sapiens) (UniProt Q9BZL6); settings: Compound concentration 1000.0 nM
[37] = biological target: G protein-coupled receptor kinase 4 (Homo sapiens) (UniProt P32298); settings: Compound concentration 1000.0 nM
[38] = biological target: Cyclin-G-associated kinase (Homo sapiens) (UniProt O14976); settings: Compound concentration 1000.0 nM
[39] = biological target: Serine/threonine-protein kinase RIO2 (Homo sapiens) (UniProt Q9BVS4); settings: Compound concentration 1000.0 nM
[40] = biological target: Myosin light chain kinase 2, skeletal/cardiac muscle (Homo sapiens) (UniProt Q9H1R3); settings: Compound concentration 1000.0 nM
Chain of Myosin light chain kinase 2, skeletal/cardiac muscle (Homo sapiens) (Q9H1R3 whole entry): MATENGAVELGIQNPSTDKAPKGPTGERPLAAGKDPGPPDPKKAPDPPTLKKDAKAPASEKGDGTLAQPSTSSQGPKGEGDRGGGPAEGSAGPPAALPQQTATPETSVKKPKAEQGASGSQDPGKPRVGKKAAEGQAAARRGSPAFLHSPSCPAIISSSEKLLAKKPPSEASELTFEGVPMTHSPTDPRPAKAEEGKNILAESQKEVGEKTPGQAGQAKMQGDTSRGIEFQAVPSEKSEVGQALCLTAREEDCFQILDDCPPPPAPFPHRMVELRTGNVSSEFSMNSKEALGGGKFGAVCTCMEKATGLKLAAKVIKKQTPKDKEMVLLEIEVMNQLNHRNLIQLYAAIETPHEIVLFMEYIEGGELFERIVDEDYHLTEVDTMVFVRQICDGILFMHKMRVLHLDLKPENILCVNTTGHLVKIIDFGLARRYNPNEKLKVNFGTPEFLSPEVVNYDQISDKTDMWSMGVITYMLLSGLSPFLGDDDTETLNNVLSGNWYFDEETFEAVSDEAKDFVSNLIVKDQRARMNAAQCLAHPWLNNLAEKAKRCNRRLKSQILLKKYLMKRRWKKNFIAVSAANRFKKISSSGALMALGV

[41] = biological target: Vascular endothelial growth factor receptor 3 (Homo sapiens) (UniProt P35916); settings: Compound concentration 1000.0 nM
[42] = biological target: Macrophage-stimulating protein receptor (Homo sapiens) (UniProt Q04912); settings: Compound concentration 1000.0 nM
[43] = biological target: Serine/threonine-protein kinase MARK2 (Homo sapiens) (UniProt Q7KZI7); settings: Compound concentration 1000.0 nM
[44] = biological target: Serine/threonine-protein kinase B-raf (Homo sapiens) (UniProt P15056); settings: Compound concentration 1000.0 nM
[45] = biological target: Myosin light chain kinase (Homo sapiens) (UniProt Q32MK0); settings: Compound concentration 1000.0 nM

CCC(=N\O)/C(C)=C/c1ccc(F)cc1 [A-079]
inactive: residual activity [1] 69% | residual activity [2] 73% | residual activity [3] 78% | residual activity [4] 81% | residual activity [5] 100% | residual activity [6] 73% | residual activity [7] 60% | residual activity [8] 94% | residual activity [9] 80% | residual activity [10] 87% | residual activity [11] 100% | residual activity [12] 88% | residual activity [13] 74% | residual activity [14] 94% | residual activity [15] 100% | inhibition [16] 4.32% | residual activity [17] 85% | residual activity [18] 67% | residual activity [19] 100% | residual activity [20] 100% | residual activity [21] 100% | residual activity [22] 97% | residual activity [23] 78% | inhibition [24] -7.17% | residual activity [25] 100% | residual activity [26] 77% | residual activity [27] 100% | residual activity [28] 81% | residual activity [29] 66% | residual activity [30] 81% | residual activity [31] 91% | residual activity [32] 76% | residual activity [33] 100% | residual activity [34] 87% | residual activity [35] 78% | residual activity [36] 99% | residual activity [37] 100% | residual activity [38] 99% | residual activity [39] 86% | residual activity [40] 81% | residual activity [41] 100% | residual activity [42] 100% | residual activity [43] 100% | residual activity [44] 87% | residual activity [45] 86%

CCC(=N\O)/C(C)=C/c1ccc(F)c(C)c1 [A-226]
inactive: residual activity [1] 100% | residual activity [2] 100% | residual activity [3] 100% | residual activity [4] 100% | residual activity [5] 88% | residual activity [6] 85% | residual activity [7] 68% | residual activity [8] 100% | residual activity [9] 100% | residual activity [10] 100% | residual activity [11] 97% | residual activity [12] 71% | residual activity [13] 100% | residual activity [14] 100% | residual activity [15] 97% | inhibition [16] -0.3% | residual activity [17] 88% | residual activity [18] 100% | residual activity [19] 72% | residual activity [20] 91% | residual activity [21] 100% | residual activity [22] 100% | residual activity [23] 83% | inhibition [24] 2.53% | residual activity [25] 100% | residual activity [26] 82% | residual activity [27] 100% | residual activity [28] 100% | residual activity [29] 100% | residual activity [30] 73% | residual activity [31] 98% | residual activity [32] 100% | residual activity [33] 100% | residual activity [34] 61% | residual activity [35] 70% | residual activity [36] 100% | residual activity [37] 100% | residual activity [38] 96% | residual activity [39] 73% | residual activity [40] 78% | residual activity [41] 80% | residual activity [42] 100% | residual activity [43] 100% | residual activity [44] 79% | residual activity [45] 100%
